Reference: patent US20070004660A1, “Synergistic Modulation of Flt3 Kinase Using Alkylquinolines and Alkylquinazolines” (priority 2005, published 2007)
Read-outs that look alike come from different tables or passages of the source.

How the values were obtained:
MV-4-11 tumor xenografts = test: In vivo combination study, FLT3 inhibitor Compound B and Tipifarnib, MV-4-11 xenografts; details: for effect on tumor growth compared to Vehicle-treated group: nine days
Experimental: The effect of combination treatment of the FLT3 Inhibitor FLT3 inhibitors of Formula I′ and Tipifarnib (Zarnestra™) on the growth of MV-4-11 human AML tumor xenografts in nude mice was tested using FLT3 inhibitor Compound B. The in vivo study was designed to extend the in vitro observations to evaluate the potential for a synergistic anti-tumor effect of FLT3 inhibitor Compound B administered orally together with Tipifarnib to nude mice bearing established MV-4-11 tumor xenografts.

FLT3 = FLT3 phosphorylation in MV4-11 tumors from treated mice (immunoblot); format: in vivo, human; details: single dose 100 mg/kg po, tumors harvested 2 hours later
Experimental: To establish further that FLT3 inhibitors of Formula I′ reached the expected target in tumor tissue, the level of FLT3 phosphorylation in tumor tissue obtained from vehicle- and compound-treated mice was measured. Results for FLT3 inhibitor Compound B (Compound 73 of Formula I′) and FLT3 inhibitor Compound C (Compound 74 of Formula I′) are shown in FIG. 3 and FIG. 4, respectively. For this pharmacodynamic study, a sub-set of 10 mice from the vehicle-treated control group were randomized into two groups of 5 mice each and then treated with another dose of vehicle or compound (100 mg/kg, po). Tumors were harvested 2 hours later and snap frozen for assessment of FLT3 phosphorylation by immunobloting.
Harvested tumors were processed for immunoblot analysis of FLT3 phosphorylation in the following manner: 100 mg of tumor tissue was dounce homogenized in lysis buffer (50 mM Hepes, 150 mM NaCl, 10% Glycerol, 1% Triton-X-100, 10 mM NaF, 1 mM EDTA, 1.5 mM MgCl2, 10 mM NaPyrophosphate) supplemented with phosphatase (Sigma Cat# P2850) and protease inhibitors (Sigma Cat #P8340). Insoluble debris was removed by centrifugation at 1000×g for 5 minutes at 4° C. Cleared lysates ([…] of total potein at 10 mg/ml in lysis buffer) were incubated with 10 μg of agarose conjugated anti-FLT3 antibody, clone C-20 (Santa Cruz cat # sc-479ac), for 2 hours at 4° C. with gentle agitation. […]

MV4-11 AML cells = test: Cell proliferation assay, single agents and FTI/FLT3 inhibitor combinations, MV4-11; format: cell-based, human; details: Homo sapiens, MV4-11; proliferation; FLT3 inhibitor alone or, in combination lines, in the combination
Experimental: Dose responses for the individual compounds alone were determined for each cell line using a standard 72-hour cell proliferation assay (see FIGS. 6.1-6.8). The standard chemotherapeutic agent Cytarabine was used as a control cytotoxic agent in all experiments. […] The FLT3 inhibitors, Compounds A, B, C, D, E, F G and H individually have good potency (sub-micromolar) for the inhibition of FLT3 driven proliferation (compared to the first line cytotoxic agent Cytarabine and Tipifarnib) in cells that depend on FLT3 for growth. Each of these chemically distinct compounds alone has potential for the treatment of disorders related to FLT3, such as FLT3 positive AML. […] The FLT3 inhibitors tested had no effect on THP-1 proliferation. […] (See FIGS. 10.1-10.8 and Tables 1-3, hereafter.)
To statistically evaluate the synergy of a FLT3 inhibitor and an FTI in FLT3 dependent cell lines, dosing combinations were evaluated by the method of Chou and Talalay. See Chou T C, Talalay P. (1984) “Quantitative analysis of dose-effect relationships: the combined effects of multiple drugs or enzyme inhibitors.” Adv Enzyme Regul. 22:27-55. […] Using this method, multiple FTI and FLT3 combinations were evaluated. […]
Cell proliferation assay for MV4-11, Baf3-ITD, Baf3-FLT3 and THP-1 cells. […] Total cell growth is quantified as the difference in luminescent counts (relative light units, RLU) of cell number at Day 0 compared to total cell number at Day 3 (72 hours of growth and/or compound treatment). One hundred percent inhibition of growth is defined as an RLU equivalent to the Day 0 reading. […]
Combination Index Analysis. To determine growth inhibition synergy of a FTI and FLT3 inhibitor combination based on the method of Chou and Talalay (Chou and Talalay. See Chou T C, Talalay P. (1984) “Quantitative analysis of dose-effect relationships: the combined effects of multiple drugs or enzyme inhibitors.” Adv Enzyme Regul. 22:27-55. ), fixed ratio combination dosing with isobolar statistical analysis was performed. […]

MV4-11 tumor xenografts = details: for reduction of final tumor weight compared to vehicle-treated group / tumor regression, decrease versus starting mean tumor volume on Day 1: 11 days; for decrease of mean tumor volume compared to vehicle-treated group: Day 11
Experimental: The oral anti-tumor efficacy of a subset of the compounds of the invention was evaluated in vivo using a nude mouse MV4-11 human tumor xenograft regression model.

CN1CCN(CCCOc2ccc3c(C4CCN(C(=O)Nc5ccc(N6CCOCC6)cc5)CC4)ncnc3c2)CC1 [FLT3 inhibitor Compound B, 4-{7-[3-(4-Methyl-piperazin-1-yl)-propoxy]-quinazolin-4-yl}-piperidine-1-carboxylic acid (4-morpholin-4-yl-phenyl)-amide]
effect on tumor growth compared to Vehicle-treated group (MV-4-11 tumor xenografts; 10 mg/kg bid po): marginal significant inhibition of tumor growth
effect on tumor growth compared to Vehicle-treated group (MV-4-11 tumor xenografts; 20 mg/kg bid po): tumor growth stasis
overt toxicity (MV-4-11 tumor xenografts; 9-day treatment, either agent alone or in combination): No overt toxicity
level of FLT3 phosphorylation in MV4-11 tumors versus vehicle (FLT3): biologically significant reduction
IC50 (MV4-11 AML cells): 0.0313 µM
reduction of final tumor weight compared to vehicle-treated group (MV4-11 tumor xenografts; 10 mg/kg b.i.d. po): 48%
decrease of mean tumor volume compared to vehicle-treated group (MV4-11 tumor xenografts; 10 mg/kg b.i.d. po): 44%
reduction of final tumor weight compared to vehicle-treated group (MV4-11 tumor xenografts; 30 mg/kg b.i.d. po): 85%
tumor regression, decrease versus starting mean tumor volume on Day 1 (MV4-11 tumor xenografts; 30 mg/kg b.i.d. po): 42%
decrease of mean tumor volume compared to vehicle-treated group (MV4-11 tumor xenografts; 30 mg/kg b.i.d. po): 84%
reduction of final tumor weight compared to vehicle-treated group (MV4-11 tumor xenografts; 100 mg/kg b.i.d. po): 99%
tumor regression, decrease versus starting mean tumor volume on Day 1 (MV4-11 tumor xenografts; 100 mg/kg b.i.d. po): 77%
decrease of mean tumor volume compared to vehicle-treated group (MV4-11 tumor xenografts; 100 mg/kg b.i.d. po): 94%
